Laboratory results reported in PubChem BioAssay (NCI).
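All cell lines were grown in 96-well plates and treated with compound for 48 hours. GI50 is the concentration that inhibits growth by half. TGI marks complete inhibition of growth.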

Legend:
Test in all cases: inhibition of tumour cell growth, NCI panel, 48 h
MALME-3M melanoma = test system: MALME-3M melanoma
SF-539 CNS = test system: SF-539 CNS
HS 578T breast = test system: HS 578T breast
CCRF-CEM leukemia = test system: CCRF-CEM leukemia
HCC-2998 colon = test system: HCC-2998 colon
SF-295 CNS = test system: SF-295 CNS
MCF7 breast = test system: MCF7 breast
HCT-15 colon = test system: HCT-15 colon
M19-MEL melanoma = test system: M19-MEL melanoma
KM20L2 colon = test system: KM20L2 colon
DMS 273 small cell lung = test system: DMS 273 small cell lung
DLD-1 colon = test system: DLD-1 colon

SMILES | GI50 (MALME-3M melanoma) [µM] | TGI (MALME-3M melanoma) [µM] | GI50 (SF-539 CNS) [nM] | TGI (SF-539 CNS) [µM] | GI50 (HS 578T breast) [nM] | TGI (HS 578T breast) [µM] | GI50 (CCRF-CEM leukemia) [nM] | TGI (CCRF-CEM leukemia) [µM] | GI50 (HCC-2998 colon) [nM] | TGI (HCC-2998 colon) [µM] | GI50 (SF-295 CNS) [nM] | TGI (SF-295 CNS) [µM] | GI50 (MCF7 breast) [nM] | TGI (MCF7 breast) [µM] | GI50 (HCT-15 colon) [nM] | TGI (HCT-15 colon) [µM] | TGI (M19-MEL melanoma) [µM] | TGI (KM20L2 colon) [µM] | TGI (DMS 273 small cell lung) [µM] | TGI (DLD-1 colon) [µM]
CC[C@H](CO)Nc1nc(NCc2ccccc2)n2ncc(C(C)C)c2n1 | 2.6 | 6.99 | 1220 | 3.62 | 1590 | 6.16 | 648 | 9.26 | 1200 | 3.27 | 812 | 4.74 | 592 | 7.99 | 872 | 10.5 | – | – | – | –
CN(C)c1ccc2c(c1)OC(N)=C(C#N)C2c1ccc2c(c1)CCO2 (stereo not given) | 14.9 | 59.7 | 118 | 0.519 | 235 | > 100 | 216 | > 52.6 | 469 | > 100 | < 20.8 | 1.95 | < 21.1 | 32.3 | < 26.2 | > 100 | – | – | – | –
CC(=O)C1C(=O)C(=O)N(c2ccccc2C(C)C)C1=O (stereo not given) | – | > 100 | – | > 100 | – | – | – | > 100 | – | > 100 | – | > 100 | – | – | – | > 100 | > 100 | > 100 | – | –
C[Si](C)(C)c1ccc(-c2sc(-c3ccc([Si](C)(C)C)s3)c3c2C[Si]2(C3)Cc3c(-c4ccc([Si](C)(C)C)s4)sc(-c4ccc([Si](C)(C)C)s4)c3C2)s1 | – | > 100 | – | > 100 | – | – | – | > 100 | – | > 100 | – | > 100 | – | – | – | > 100 | > 100 | > 100 | > 100 | > 100
C/C=C(/C)C(=O)O[C@H](C[C@@H](C)[C@H]1CC(c2ccoc2)OC1=O)[C@@]1(C)C(=O)CCC2O[C@]21C (stereo not given in full) | – | > 100 | – | > 100 | – | > 100 | – | > 100 | – | > 100 | – | > 100 | – | > 100 | – | > 100 | – | – | – | –
O=CC1CCCc2ccccc21 (stereo not given) | – | > 100 | – | – | – | – | – | > 72 | – | > 100 | – | > 100 | – | – | – | > 91.6 | > 100 | > 100 | > 100 | > 63.8
CC1(C)C2C=CC1(C)C1(CC2)OCCO1 (stereo not given) | – | > 100 | – | > 100 | – | > 100 | – | > 100 | – | > 100 | – | > 100 | – | > 100 | – | > 100 | – | – | – | –
CCN(CC)Cc1ccc(Nc2nccc(-c3cnn4ncccc34)n2)cc1 | 0.033 | 0.11 | 9.73 | 0.0781 | 16.4 | 0.117 | 14.8 | > 25 | 33.3 | 0.129 | 31.1 | > 25 | 17 | 14.8 | 26.5 | > 25 | – | – | – | –
C=C(CO[Si](C)(C)C(C)(C)C)C(C)=O | – | 39.7 | – | > 62.2 | – | > 84.4 | – | 9.01 | – | 57.3 | – | > 100 | – | 76.7 | – | 77.6 | – | – | – | –
O=C(/C=C/c1ccc([N+](=O)[O-])cc1)c1ccc2c3c(cccc13)CC2 | > 64.2 | > 100 | 2630 | 7.72 | – | > 30.8 | 5210 | > 100 | 26900 | > 78.1 | 6230 | > 100 | 2700 | > 25.4 | 5070 | > 100 | – | – | – | –
Nc1nc(Nc2ccc(C3CCC(N4CCOCC4)CC3)cc2)nn1-c1ccccn1 (stereo not given) | 5.58 | > 46 | 1420 | 4.99 | 1640 | 7.41 | 3250 | 55.9 | 17200 | > 100 | 2920 | 10.9 | 3230 | 35.3 | 3600 | > 100 | – | – | – | –
Cn1cc(C2=C(c3cccc(OCC(O)CO)c3)C(=O)NC2=O)c2ccccc21 (stereo not given) | > 25 | > 25 | > 25000 | > 25 | > 15200 | > 25 | > 25000 | > 25 | > 25000 | > 25 | > 25000 | > 25 | > 25000 | > 25 | > 25000 | > 25 | – | – | – | –
CCCCN(CCCC)c1ccc(C(=N)c2ccc(N(CCCC)CCCC)cc2)cc1 | 0.508 | 2.12 | 1490 | 2.95 | 539 | 1.58 | 557 | 2.27 | 442 | 1.65 | 499 | 1.79 | 389 | 1.44 | 418 | 1.62 | – | – | – | –
O=C(Nc1ccc(Cl)cc1)Nc1ccc(Nc2nncc3ccccc23)cc1 | 3.94 | 16.5 | 2880 | 11.5 | 3830 | 27.7 | 2570 | 17 | 3260 | 19.8 | 2840 | 11 | 1430 | 8.33 | 1590 | 11.8 | – | – | – | –
C[C@]12CCC3[C@@H](CC[C@@H]4c5nonc5CC[C@]34C)C1C/C(=N/O)C2=O (stereo not given in full) | – | > 100 | – | > 100 | – | – | – | > 100 | – | – | – | > 100 | – | – | – | > 100 | > 100 | > 100 | > 100 | –
CS[C@]12C(=O)C[C@@]3(C)[C@@H](CC[C@]3(O)C(=O)CO)[C@@H]1CCC1=CC(=O)CC[C@@]12C | – | > 100 | – | > 100 | – | > 100 | – | > 100 | – | 80.2 | – | > 100 | – | > 100 | – | > 100 | – | – | – | –
COC(=O)C1=CC2C(=O)OC1CC2C#N (stereo not given) | – | > 100 | – | > 100 | – | – | – | > 100 | – | > 100 | – | > 100 | – | – | – | – | – | > 100 | > 100 | > 100
O=C1c2c(O)cccc2C(C2OC(CO)C(O)C(O)C2O)c2cc(CO)cc(O)c21 (stereo not given) | – | > 100 | – | > 100 | – | > 100 | – | > 100 | – | > 100 | – | > 100 | – | > 100 | – | > 100 | – | – | – | –
